Assay results from patent US20100099756A1, “USES OF INCENSOLE, INCENSOLE ACETATE AND DERIVATIVES THEREOF” (YISSUM RESEARCH DEVELOPMENT COMPANY OF THE HEBREW …, priority 2006, published 2010).

Assays:
NO generation = experiment: Nitric oxide (NO) levels in LPS-activated murine peritoneal macrophages; format: cell-based, mice
Method: (§1) (A(1)) Representative Western Blot bands of Cox2 are shown with tubulin as reference. (A(2)) COX-2 levels were measured in RAW 264.7 cells incubated for 24 hrs. with LPS in the presence or in the absence of IA (60 μM/ml); **, p<0.001. (B) Murine peritoneal macrophages were activated by LPS (1 μg/ml for 24 hrs.) in absence of IA or in the presence of IA at indicated concentrations. NO generation was determined by measuring the nitrite accumulated in the supernatants; **, p<0.001. (C) Generation of ROS by RAW 264.7 macrophages (5×10^5 cells in 0.5 ml Hanks' balanced salt solution) was measured by chemiluminescence. Cells were pre-incubated with various doses of IA for 24 hrs before luminol (10 μl) and zymosan (30 μl) were added to the tubes; *, p<0.05; **, p<0.01; ***, p<0.001
Peritoneal macrophages were harvested from C57BL/6 female mice four days after intraperitoneal injection of 1.5 ml of a 3% thioglycollate medium (Difco, N.J., USA). […]
Nitric Oxide (NO) Levels. […] NO generation was determined by measuring the nitrite accumulated in the supernatants (100 μl) of the IA-treated macrophages as follows. […] Following 10 min of incubation at room temperature, the color production was measured at 550 nm with an ELISA reader. The concentration of the nitrite was calculated according to a standard curve.

COX-2 = COX-2 production in LPS-stimulated RAW 264.7 cells; format: cell-based, mice; details: 60 μM, P<0.001
Method: as §1
COX-2 Production. RAW 264.7 cells were treated with subtoxic concentrations (confirmed by MTT colorimetric assay) of incensole acetate (10-20 μg/ml, dissolved in ethanol and further diluted in medium) and incubated with lipopolysaccharide (LPS, E. coli 1 μg/ml for 24 hs, Sigma, Israel) for 16-24 hrs. […]
Proteins were extracted from cells in NP-40 lysis buffer (50 mM Tris/HCl pH 7.5, 150 mM NaCl, 0.1% SDS, 1% NP-40, 10 mM EDTA, 1 mM phenylmethylsulfonylfluoride (PMSF), and 10 mM DTT). Total protein concentration was determined using the Bradford method and the lysates were analyzed by Western blotting.

cancer cells = experiment: Cell proliferation test (MTT); format: cell-based; details: three days
Method: In each MTT assay every concentration of the cytotoxic substance was tested in five replicates in microplate wells. Assays with every cell line were carried out in two to three repeated experiments. The inhibitory effect of various compounds was calculated as percentage inhibition in comparison with the values obtained in untreated wells to which vehicle (ethanol 0.5%) was added.
Aliquots (200 μL) of suspensions of cancer cells were dispensed into wells of 96-well tissue culture plates at densities of 0.02×10^6 cells/well. Various concentrations of IA were introduced into the wells, and their efficacy was tested three days after initiation of the cultures, using the 3-(4,5-dimethylthiazol-2-yl)-2,5-diphenyltetrazolium bromide (MTT) assay. The principle of this assay is that cells which survive following exposure to various compounds can reduce MTT to a dark -colored formazan, while dead cells are incapable of doing so. In each MTT assay every concentration of the cytotoxic substance was tested in five replicates in microplate wells. Assays with every cell line were carried out in two to three repeated experiments. The inhibitory effect of various compounds was calculated as percentage inhibition in comparison with the values obtained in untreated wells to which vehicle (ethanol 0.5%) was added.

## CC(=O)OC1CC/C(C)=C/CC/C(C)=C/CC2(C(C)C)CCC1(C)O2 (centres unmarked) [IA, incensole acetate]
NO generation; LPS 1 μg/ml for 24 hrs, ANOVA P<0.0001
  NO generation (nitrite in supernatants), dose dependence: inhibited NO generation in a dose dependent manner
NO generation; at 80 μM, p=0.0022
  NO production: about 45%
COX-2
  COX-2 production: inhibited
Cancer cells
  proliferation of cells, other cell lines (FIG. 11B): no effect
Cancer cells; hematopoetic cells
  proliferation of cells, several cell lines (FIG. 11A): inhibited the proliferation of cells
